Source: the PolyMetriX glass transition set
± gives the standard deviation of the reports.

glass transition temperature [°C]	Compound
160.00	*CCCCCCCCCCCCCCc1ccc(-c2c(-c3ccccc3)cc(-c3cccc(-c4cc(-c5ccccc5)c(-c5ccc(*)cc5)c(-c5ccccc5)c4-c4ccccc4)c3)c(-c3ccccc3)c2-c2ccccc2)cc1 (repeat unit)
228.00	*c1ccc(Oc2ccc(Oc3ccc(N4C(=O)c5ccc(Oc6ccc7ccc(Oc8ccc9c(c8)C(=O)N(*)C9=O)cc7c6)cc5C4=O)cc3)cc2)cc1 (repeat unit)
289.00	*c1ccc(-c2ccc(-n3c(-c4ccc(Oc5ccc(S(=O)(=O)c6ccc(Oc7ccc(-c8nc9ccccc9n8*)cc7)cc6)cc5)cc4)nc4ccccc43)cc2)cc1 (repeat unit)
311.00	*CC1(C)CC(N2C(=O)c3ccc(-c4ccc5c(c4)C(=O)N(*)C5=O)cc3C2=O)CC(C)(C)C1 (repeat unit)
119.00	*Oc1ccc(Oc2cccc(C(=O)Oc3ccc(OC(=O)c4cccc(*)c4)cc3)c2)cc1 (repeat unit)
250.00	*Oc1ccc(S(=O)(=O)c2ccc(OC(=O)c3ccc([Si](c4ccccc4)(c4ccccc4)c4ccc(C(*)=O)cc4)cc3)cc2)cc1 (repeat unit)
-83.00	*O[Si](C)(C)O[Si](C)(C)OC(C)CCC(*)C (repeat unit)
140.00	*c1ccc2c(c1)C(=O)N(c1ccc(-c3ccc(N4C(=O)c5ccc(C(*)(C(F)(F)F)C(F)(F)F)cc5C4=O)c(OCCCCCCOc4ccc(/C=C/c5ccc(F)cc5)cc4)c3)cc1OCCCCCCOc1ccc(/C=C/c3ccc(F)cc3)cc1)C2=O (repeat unit)
58.00	*c1ccc2c(c1)C(CCCCCC)(CCCCCC)c1cc(-c3cc(OCCCCCCCC)c(*)cc3OCCCCCCCC)ccc1-2 (repeat unit)
37.00	*CC(*)C(=O)Oc1ccc(C(=O)OCC)cc1 (repeat unit)
312.00	*Oc1ccc(C2(c3ccc(OC(=O)c4ccc(C(*)=O)cc4)cc3)CCc3ccccc32)cc1 (repeat unit)
43.00	*CC(*)c1ccc(C(O)CCN(C)C)cc1 (repeat unit)
137.00	*Oc1cccc(C(=O)c2ccc(*)cc2)c1 (repeat unit)
47.00	*OC(=O)CNC(=O)CNC(=O)CCCCCCCCC(=O)NCC(=O)NCC(=O)OC1COC2C(*)COC12 (repeat unit)
279.00	*Oc1cccc(C(=O)Nc2ccc(-c3ccc(NC(=O)c4cccc(Oc5nc(*)nc(Sc6ccccc6)n5)c4)cc3)cc2)c1 (repeat unit)
245.00	*CC(*)c1ccc(B(Oc2ccc(-c3c(F)c(F)c(F)c(F)c3F)c3cccnc23)c2ccc(C(C)(C)C)cc2)cc1 (repeat unit)
10.00	*CCCCCCCCCCN/C(=N/*)c1ccccc1 (repeat unit)
366.50	*c1ccc2c(c1)C(=O)N(c1cc(C(=O)O)cc(N3C(=O)c4ccc(C(*)(C(F)(F)F)C(F)(F)F)cc4C3=O)c1)C2=O (repeat unit)
230.00	*c1ccc(Oc2ccc(-c3ccc(Oc4ccc(-c5nc(-c6ccccn6)nnc5*)cc4)cc3)cc2)cc1 (repeat unit)
63.00	*CCN(CCOC(=O)CCC#CC#CCCC(=O)O*)c1ccc(/N=N/c2c(C)cc(/N=N/c3ccc(C#N)cc3)cc2C)cc1 (repeat unit)
249.47	*c1ccc(Oc2ccc(C(C)(C)c3cccc(C(C)(C)c4ccc(Oc5ccc(-n6c(=O)c7cc8c(=O)n(*)c(=O)c8cc7c6=O)cc5)cc4)c3)cc2)cc1 (repeat unit)
-78.00	*O[Si](*)(C)OCCOCCOCCOCCOCCOCCOCCOCCOC (repeat unit)
128.00	*COC(=O)OC1C(*)OC2OC(C)(C)OC21 (repeat unit)
42.00	*CC(*)c1cc(C(=O)OCCCCCCCCCCCC)ccc1-c1ccc(OCCCCCCCC)cc1 (repeat unit)
147.00	*CCCCCN1C(=O)c2ccc(C(=O)Oc3ccc(-c4ccc(OC(=O)c5ccc6c(c5)C(=O)N(*)C6=O)cc4)cc3)cc2C1=O (repeat unit)
235.00	*c1ccc(C(=O)Nc2ccc(-c3nnc(*)o3)cc2)c(Oc2ccccc2)c1 (repeat unit)

glass transition temperature [°C]	Compound
195.80	*Oc1cc(Oc2cccc(NC(=O)c3cc(Oc4ccc(C(=O)O)c(C(=O)Nc5cccc(*)c5)c4)ccc3C(=O)O)c2)ccc1C#N (repeat unit)
190.2	*Oc1ccc(NC(=O)c2cc(-c3ccc(C(=O)OCC)c(C(=O)Nc4ccc(*)cc4)c3)ccc2C(=O)OCC)cc1 (repeat unit)
215.00	*C(=O)Nc1ccccc1NC(=O)c1ccc(N2C(=O)c3ccc(*)cc3C2=O)cc1 (repeat unit)
109.00	*CC(*)(C)C(=O)Oc1ccc(C(=O)OC)cc1 (repeat unit)
146.00	*CCN(CCOC(=O)NCC1(C)CC(NC(=O)O*)CC(C)(C)C1)c1ccc(/N=N/c2ccc(B(c3c(C)cc(C)cc3C)c3c(C)cc(C)cc3C)cc2)cc1 (repeat unit)
264.00	*c1ccc(Oc2cccc(-c3cc(-c4ccccc4)cc(-c4cccc(Oc5ccc(-n6c(=O)c7cc8c(=O)n(*)c(=O)c8cc7c6=O)cc5)c4)n3)c2)cc1 (repeat unit)
260.80	*c1ccc2c(c1)C(=O)N(c1ccc(Oc3ccc(Oc4ccc(N5C(=O)c6ccc(C(*)(C(F)(F)F)C(F)(F)F)cc6C5=O)cc4)cc3)c(C(F)(F)F)c1)C2=O (repeat unit)
239.00	*Oc1c(C)cc(C(C)(C)c2cc(C)c(OC(=O)c3ccc(C(*)=O)cc3)c(C)c2)cc1C (repeat unit)
174.00	*Oc1ccc(/N=C(\c2ccccc2)c2ccc(Oc3ccc(-c4ccc(Oc5ccc(/C(=N/c6ccc(*)cc6)c6ccccc6)cc5)cc4)cc3)cc2)cc1 (repeat unit)
170.00	*Oc1ccc(Oc2ccc(C(=O)c3ccc(-c4ccc(C(=O)c5ccc(*)cc5)cc4)cc3)cc2)cc1-c1cccc(C)c1 (repeat unit)
220.00	*c1ccc(Oc2ccc(-c3ccc(Oc4ccc(N5C(=O)c6ccc(Oc7ccc(-c8ccc(Oc9ccc%10c(c9)C(=O)N(*)C%10=O)cc8)cc7)cc6C5=O)cc4)cc3)cc2)cc1 (repeat unit)
259.00	*c1cccc(N2C(=O)c3cccc(Oc4ccc(Oc5cccc6c5C(=O)N(*)C6=O)cc4)c3C2=O)c1 (repeat unit)
282.00 ± 3	*C(=O)c1ccc2c(c1)C(=O)N(c1ccc(C(=O)c3cccc(N4C(=O)c5ccc(*)cc5C4=O)c3)cc1)C2=O (repeat unit)
126.00	*c1ccc(-c2cc3c(ccc4ccccc43)cc2-c2ccc(N(*)c3ccc(C)cc3)cc2)cc1 (repeat unit)
208.2 ± 12	*c1ccc(Oc2cccc(Oc3ccc(N4C(=O)c5ccc(Oc6ccc7c(c6)C(=O)N(*)C7=O)cc5C4=O)cc3)c2)cc1 (repeat unit)
115.00	*Oc1c(Br)cc(C(C)(C)c2cc(Br)c(OC(=O)c3cccc(C(*)=O)c3)c(Br)c2)cc1Br (repeat unit)
267.00	*c1ccc(Oc2ccc(Oc3ccc(N4C(=O)C(c5ccccc5)=C(c5ccc(C6=C(c7ccccc7)C(=O)N(*)C6=O)cc5)C4=O)cc3)cc2)cc1 (repeat unit)
230.00	*c1ccc(Oc2ccc(C(C)(C)c3ccc(Oc4ccc(-c5nnc(*)n5-c5ccc(S(C)(=O)=O)cc5)cc4)cc3)cc2)cc1 (repeat unit)
255.00	*C(=O)c1ccc2nc(-c3ccccc3)c(-c3ccc(N4C(=O)c5ccc(C(=O)c6ccc7c(c6)C(=O)N(c6ccc(-c8nc9cc(*)ccc9nc8-c8ccccc8)cc6)C7=O)cc5C4=O)cc3)nc2c1 (repeat unit)
289.00	*c1c(C)cc(Cc2cc(C)c(N3C(=O)c4cccc(Oc5c(C)cc(-c6cc(C)c(Oc7cccc8c7C(=O)N(*)C8=O)c(C)c6)cc5C)c4C3=O)c(C)c2)cc1C (repeat unit)
28.00	*/C=[CH]/[Ge](/[CH]=C/[Si](*)(c1ccccc1)c1ccccc1)([c]1ccccc1)[c]1ccccc1 (repeat unit)
20.00	*CC(*)OC(=O)CC(C)(C)c1ccccc1 (repeat unit)
234.00	*c1ccc(N(c2ccc(C#N)cc2)c2ccc(N3C(=O)c4ccc(Oc5ccc(C(c6ccc(Oc7ccc8c(c7)C(=O)N(*)C8=O)cc6)(C(F)(F)F)C(F)(F)F)cc5)cc4C3=O)cc2)cc1 (repeat unit)
298.20	*Oc1ccc(S(=O)(=O)c2ccc(Oc3c(C)cc(-c4cc(C)c(*)c(C)c4Br)c(Br)c3C)cc2)cc1 (repeat unit)
225.00	*c1ccc(-c2ccc(N(*)c3ccc(C(F)(F)F)cc3)cc2)cc1 (repeat unit)
258.00	*c1cccc(C(=O)Nc2ccc(Oc3ccc(S(=O)(=O)c4ccc(Oc5ccc(NC(=O)c6cccc(N7C(=O)c8ccc(-c9ccc%10c(c9)C(=O)N(*)C%10=O)cc8C7=O)c6)cc5)cc4)cc3)cc2)c1 (repeat unit)

Compound	glass transition temperature [°C]
*=NP(=NP(=NC(=*)Oc1ccc(OC)cc1)(Oc1ccc(OC)cc1)Oc1ccc(OC)cc1)(Oc1ccc(OC)cc1)Oc1ccc(OC)cc1 (repeat unit)	37.00
*CC(*)C(=O)c1ccc(CC)cc1 (repeat unit)	49.2
*CC(*)C(=O)NCCC[N+](C)(C)C (repeat unit)	57.00
*CC(*)(C)C(=O)OCc1ccc(Cl)cc1 (repeat unit)	43.60
*CCN(*)C(=O)CCCCC (repeat unit)	7.00
*CCOc1ccc(S(=O)(=O)c2ccc(OCCOP(=O)(O*)Oc3ccc(OC)cc3)cc2)cc1 (repeat unit)	52.00
*CC(COCC=C)O* (repeat unit) [poly(allyl glycidyl ether)]	-35.33 ± 57
*CC(*)N1CCCCCC1=O (repeat unit)	174.60
*CC(*)C(=O)OCCC (repeat unit) [Poly(n-propyl acrylate) ]	-41.33 ± 4
